Results: PMC6234871 (mBio, 2018)

Assays:
[1] = target: T1, PfHAD2 (HAD2, 6×His-HAD2) (Plasmodium falciparum, UniProt Q8I5F4); assay: EnzChek phosphate release assay (MESG/PNP coupled); format: biochemical; conditions: 5 mM substrate, 730 nM enzyme, 20 mM MgCl2, 50 mM Tris-HCl pH 8.0; normalised to D26A mutant
T1 construct: gene PF3D7_1226300; native mass about 33 kDa

[2] = target: T1, PfHAD2 (HAD2, 6×His-HAD2); assay: continuous absorbance at […] nm; format: biochemical; conditions: 10 mM pNPP, 1.2 µM enzyme, 5 mM MgCl2, 50 mM Tris-HCl pH 7.5, 37°C

SMILES | EnzChek phosphate release assay (MESG/PNP coupled) [1] | continuous absorbance at 405 nm [2]
O=P(O)(O)OC(CO)CO [glycerol 2-phosphate] | PfHAD2 is a phosphatase with activity against small phosphosubstrates, such as glc2P | 
O=[N+]([O-])c1ccc(OP(=O)(O)O)cc1 [para-nitrophenyl phosphate] |  | confirmed the phosphatase activity of recombinant PfHAD2 using para-nitrophenyl phosphate (pNPP)
